Reference: patent US9937182B2, “Therapeutic strategies for the treatment of preeclampsia” (UNIVERSITY OF IOWA RESEARCH FOUNDATION, priority 2013, dated 2018)
“Also recorded” adds a separate entry of the source. Read-outs that look alike come from different tables or passages of the source.

Experiments:
DOCA-salt hypertension = conditions: rats, intracerebroventricular (ICV) infusion; cited from earlier work
[1] = test system: isolated neurointermediate lobes; conditions: baseline and potassium-stimulated conditions; cited from earlier work
[2] = test system: sRA mice and littermate controls; assay: Plasma vasopressin (ELISA) after BH4 treatment; format: in vivo; conditions: BH4 10 mg/kg/day i.p., three days
Description: Methods: Double-transgenic sRA mice and littermate controls were placed into single-mouse metabolic cages (Nalgene), and maintained on a 12:12 light:dark cycle at 22° C. with ad libitum access to standard chow (Teklad 7013) and water. Mice were injected once daily (i.p.) with BH4 to achieve 10 mg/kg/day. On the fourth day, mice were sacrificed by CO2 asphyxiation and trunk blood was collected into lithium heparin-coated tubes and placed on ice between 11:30 AM and 1:00 PM (5.5 to 7 hours into the light phase of the standard light cycle). Blood was then centrifuged at 2,000×g for 20 minutes. Plasma was collected and stored at −80° C. until analysis. Plasma samples were analyzed for vasopressin using a commercially-available ELISA kit (Cayman, catalog #583951), according to the manufacturer's instructions. Results falling outside the range of the standard curve (>3,000 pg/mL or <23.4 pg/mL) were set to the maximum or minimum (3,000 or 23.4 pg/mL), respectively, for statistical comparisons. Data were analyzed by three-way ANOVA followed by Tukey all-pairwise multiple comparison procedures.

rats = conditions: euhydrated vs dehydrated; cited from earlier work
abdominal aorta = assay: Abdominal aortic ring vascular reactivity (organ bath); format: cell-based, mice; conditions: for Maximum Response: contractile response; for Emax: Mus musculus, relaxation after PGF2α contraction, read-out: Maximum Response
Description: Aortic Vascular Reactivity: Abdominal aortic rings were assessed for vascular reactivity as previously described (32). Briefly, mice were euthanized by overdose of pentobarbital (50 mg, i.p.), and the abdominal aorta was quickly removed and placed in Kreb's buffer containing (in mmol/L): 118.3 NaCl, 4.7 KCl, 1.2 MgSO4, 1.2 KH2PO4, 25 NaHCO3, 2.5 CaCl2 and 11 glucose. Vascular rings (4-5 mm in length) were suspended in oxygenated Kreb's buffer (95% O2/5% CO2) in organ baths at 37° C. and connected to a force transducer via steel hooks. Resting tension was adjusted to 0.5 grams over 45 minutes. Contractile responses were tested in response to AVP (10^−10-10^−6 mol/L), phenylephrine (PE, 10^−8-3×10^−5), endothelin-1 (ET-1, 10^−10-10^−7), prostaglandin F2α (PGF2α, 10^−7-10^−4), and angiotensin II (Ang II, 10^−10-10^−7). Following sub-maximal contraction with PGF2α (40-50% of max; 3×10^−6-6×10^−6), relaxation responses to acetylcholine (10^−8-3×10^−5) and sodium nitroprusside (10^−9-10^−5) were determined.
(§1) Statistics: Data were analyzed by ANOVA with repeated measures as appropriate. Post-hoc analyses were performed using Bonferroni multiple-comparisons procedures. EC50 and maximum response calculations were performed by fitting individual dose-response data sets to a four-parameter logistic function (Hillslope method); y=min+([…])/(1+(x/EC50)^Hillslope). All mRNA fold changes were calculated using the Livak method (54). All analytical comparisons were performed using SigmaStat/SigmaPlot (Systat). All data are presented as mean±sem.

[3] = test system: 2°-branch mesenteric artery; assay: Mesenteric artery vascular reactivity (pressurized myography); format: cell-based, mice; conditions: for Emax: Mus musculus, read-out: Maximum Response
Description: Mesenteric Artery Vascular Reactivity: Secondary branches of mesenteric artery were dissected and placed in chilled oxygenated (21% O2, 5% CO2, and 74% N2) Kreb's buffer. A segment (˜1 mm long) of artery was transferred to a vessel chamber (DMT), cannulated with glass micropipettes and secured with silk ligatures. The artery was slowly pressurized to 40 mmHg without flow. After 30 min equilibration, vessel viability was tested by constriction response to 100 mM KCl. Vascular responses to PE (10-9-10-5 mol/L), AVP (10-12-10-7 mol/L), and ET-1 (10-11-10-8 mol/L) were then assessed. The artery was then superfused with calcium-free Krebs buffer containing 10-5 mol/L sodium nitroprusside and 2 mmol/L EGTA to maximally dilate the vessel. Internal and external diameters were measured at 75 mm Hg. Wall thickness, media/lumen ratio and cross sectional area (CSA) were calculated as previously described by Neves, et al. (62).
as §1

sRA mice [4] = assay: Radiotelemetric blood pressure, heart rate and physical activity during antagonist infusion; format: in vivo
Description: Blood pressure (telemetry). Radiotelemetric blood pressures were recorded from the carotid artery essentially as previously reported (29). Briefly, a telemeter probe (DSI, model TA11PA-C10) was inserted into the common carotid artery under ketamine-xylazine anesthesia. After >2 days of recovery, blood pressure, heart rate, and spontaneous physical activity were recorded for 30 s every 5 min using the Dataquest program (DSI). After baseline recordings, mice were chronically delivered conivaptan and tolvaptan via osmotic minipump that was implanted through an interscapular incision into the subcutaneous space of the back under isoflurane anesthesia.

sRA mice [5] = assay: Tail-cuff systolic blood pressure during chronic subcutaneous antagonist infusion; format: in vivo; conditions: 22 ng/h sc, 10 days chronic infusion
[6] = test system: polycystic kidney disease; conditions: average dose 95 mg per day over 3 years, cited from earlier work
[7] = test system: sRA and control littermate mice; assay: Blood chemistry following tolvaptan infusion (iSTAT CHEM8+); format: in vivo; conditions: for Crenfinine: lower detection limit 0.20 mg/dl
Description: Blood pressure (tail-cuff). Here we first examined blood pressure in sRA mice using a Visitech Systems BP-2000 tail-cuff blood pressure monitoring system, as previously described (84). Briefly, animals were acclimated to warmed restraint boxes daily for 1 wk. Once acclimated, 30 measurements of systolic blood pressure were averaged from each animal daily for 2 wk to assess baseline blood pressure. Conivaptan (Vaprisol, YM 087, 22 ng/h sc, Baxter Healthcare) or tolvaptan (OPC-41061, 22 ng/h sc, Sigma Aldrich) was delivered to distinct subsets of mice by osmotic minipump (model 1004, Alzet). After osmotic minipump implantation, pressures were recorded daily for 10 days to assess drug effects.
Blood and urine analyses: Plasma was obtained by collecting whole blood by submandibular bleed into lithium heparin coated tubes, then centrifuged at 5,000×g for 5 minutes, and the supernatant transferred to a fresh tube and frozen at −80° C. until analysis. Urine was collected using Nalgene single-mouse metabolism cages as previously described (29). Copeptin was measured using an ELISA kit (USCN Life Sciences), according to the manufacturer's instructions. Blood chemistries and urine creatinine were determined using a handheld iSTAT clinical chemistry analyzer (Abbott), with CHEM8+ cartridges. Urine protein was determined using a bicinchoninic acid assay kit (Thermo Fisher/Pierce), according to the manufacturer's instructions.

[8] = test system: patients with heart failure; conditions: with traditional diuretics; cited from earlier work
[9] = exemplar female sRA mouse, conivaptan 22 ng/h sc, 18 days
[10] = males, Control mice, tolvaptan 22 ng/h, 10 days sc

## C[C@H](CS)C(=O)N1CCC[C@H]1C(=O)O [captopril]
DOCA-salt hypertension
  DOCA-salt hypertension: both prevented and reversed DOCA-salt hypertension

## C[C@H](O)[C@H](O)[C@H]1CNc2[nH]c(N)nc(=O)c2N1 [BH4, (6R)-2-Amino-6-[(1R,2S)-1,2-dihydroxypropyl]-5,6,7,8-tetrahydropteridin-4(1H)-one]
[1]
  vasopressin content: reduces vasopressin content
[2]; control littermate mice
  steady-state plasma AVP levels: no effect on steady-state AVP levels; also recorded: unchanged
[2]; sRA mice
  steady-state plasma AVP levels: significant (P=0.017) reduction; also recorded: significantly (*P=0.017) reduced
rats
  neurohypophysial vasopressin: reduces neurohypophysial vasopressin under euhydrated but not dehydrated conditions

## CCCCC[C@H](O)/C=C/[C@@H]1[C@@H](C/C=C\CCCC(=O)O)[C@@H](O)C[C@H]1O [Prostaglandin F2α]
Abdominal aorta; male Control mice
  Maximum Response: 1.59 ± 0.06 g
Abdominal aorta; male sRA mice
  Maximum Response: 1.50 ± 0.10 g

## CC[C@H](C)[C@H](NC(=O)[C@H](Cc1ccc(O)cc1)NC(=O)[C@@H](NC(=O)[C@H](CCCNC(=N)N)NC(=O)[C@@H](N)CC(=O)O)C(C)C)C(=O)N[C@@H](Cc1c[nH]cn1)C(=O)N1CCC[C@H]1C(=O)N[C@@H](Cc1ccccc1)C(=O)O [Angiotensin II]
Abdominal aorta; male Control mice
  Maximum Response: 0.32 ± 0.03 g
Abdominal aorta; male sRA mice
  Maximum Response: 0.38 ± 0.03 g

## CNC[C@H](O)c1cccc(O)c1 [Phenylephrine]
[3]; male Control mice
  Emax: 67.3 ± 3%
[3]; male sRA mice
  Emax: 64.5 ± 4.1%

## CC(=O)OCC[N+](C)(C)C [Acetylcholine]
Abdominal aorta; male Control mice
  Emax: 78.9 ± 3.3%
Abdominal aorta; male sRA mice
  Emax: 70.4 ± 8.9%

## Cc1nc2c([nH]1)-c1ccccc1N(C(=O)c1ccc(NC(=O)c3ccccc3-c3ccccc3)cc1)CC2 [Conivaptan, N-(4-((4,5-dihydro-2-methylimidazo[4,5-d][1]benzazepin-6(1H)-yl)carbonyl)phenyl)-(1,1′-biphenyl)-2-carboxamide]
sRA mice [4]; [9]
  blood pressure (telemetry, MAP): gradual but substantial reduction in blood pressure
  heart rate (telemetry): slight reduction in heart rate
  spontaneous physical activity: remained normal
sRA mice [5]
  systolic blood pressure (tail-cuff): complete normalization of the hypertension

## CC[C@H](C)[C@H](NC(=O)[C@H](CC(=O)O)NC(=O)[C@H](CC(C)C)NC(=O)[C@H](Cc1c[nH]cn1)NC(=O)[C@@H]1CSSC[C@H](N)C(=O)N[C@@H](CO)C(=O)N[C@H]2CSSC[C@H](NC(=O)[C@H](CCC(=O)O)NC(=O)[C@H](CCCCN)NC(=O)[C@H](CC(=O)O)NC(=O)[C@H](CCSC)NC(=O)[C@H](CC(C)C)NC(=O)[C@H](CO)NC(=O)[C@H](CO)NC2=O)C(=O)N[C@@H](C(C)C)C(=O)N[C@@H](Cc2ccc(O)cc2)C(=O)N[C@@H](Cc2ccccc2)C(=O)N1)C(=O)N[C@H](C(=O)N[C@@H](Cc1c[nH]c2ccccc12)C(=O)O)[C@@H](C)CC [Endothelin-1]
[3]; male Control mice
  Maximum Response: 67.8 ± 4.3%
[3]; male sRA mice
  Maximum Response: 58.0 ± 4.6%
Abdominal aorta; male Control mice
  Maximum Response: 0.45 ± 0.04 g
Abdominal aorta; male sRA mice
  Maximum Response: 0.55 ± 0.09 g

## Cc1ccccc1C(=O)Nc1ccc(C(=O)N2CCC[C@@H](O)c3cc(Cl)ccc32)c(C)c1 [Tolvaptan, N-(4-[[(5R)-7-chloro-5-hydroxy-2,3,4,5-tetrahydro-1H-1-benzazepin-1-yl]carbonyl]-3-methylphenyl)-2-methylbenzamide]
sRA mice [4]; cohort of sRA mice (n=4 female), tolvaptan sc infusion 10 days
  blood pressure (radiotelemetry, MAP): blood pressure reduction was confirmed
[6]
  reduction of the decline in kidney function compared with placebo: approximately 30%
  slowing of the usual increase in kidney volume compared to placebo: 50%
[6]; placebo 5.51, p<0.001
  increase in kidney volume: 2.80 % per year
[6]; placebo −3.81, p<0.001
  reciprocal serum creatinine: −2.61 (mg/mL)-1 per year
sRA mice [5]
  systolic blood pressure (tail-cuff): nearly identical normalization of blood pressure
[7]; chronic tolvaptan delivery, genotype X drug interaction P<0.05 for both
  hyponatremia and hypocalcemia of sRA mice: corrected both of these imbalances
[7]; females, Control mice, tolvaptan 22 ng/h, 10 days sc
  Crenfinine: 0.24 ± 0.02 mg/dL
[7]; females, sRA mice, tolvaptan 22 ng/h, 10 days sc
  Crenfinine: 0.33 ± 0.04 mg/dL
[7]; [10]
  Sodium: 148 mM
  Crenfinine: 0.25 ± 0.03 mg/dL
[7]; males, sRA mice, tolvaptan 22 ng/h, 10 days sc
  Crenfinine: 0.30 ± 0.04 mg/dL
[8]
  excretion of excess fluids and blood sodium levels: increase excretion of excess fluids and improve blood sodium levels
  side effects: without producing side effects such as hypotension (low blood pressure) or hypokalemia
